Broadly, the IC50 is the concentration at which inhibition is half-maximal. Low readings indicate higher potency, high ones lower potency. The term Ki denotes a dissociation constant, usually derived from enzyme kinetics or from competition with a known ligand.

The values that follow come from patent US7335632B2, “Beta-secretase inhibitors and methods of use thereof” (CoMentis, Inc., priority 2001, dated 2008).

One assay has as its system Aβ production. Nature of the assay: Cellular Aβ IC50 determination (Aβ40 sandwich ELISA). It is filed as cell-based. To be noted: Cricetulus griseus, Chinese hamster ovary cells over-expressing human APP695 with London and Swedish mutations, 24 h. As for the experimental part: The potency of compounds against memapsin 2 activity was determined in a cellular assay of Aβ production. […] Chinese hamster ovary cells that over-express human APP695 with the London and Swedish mutations were seeded in multi-well plates at 10% confluency. Compounds were dissolved in DMSO to concentrations near 1 mM, and diluted into culture media to a final concentration near 4 μM (final 0.4% DMSO). Compounds were diluted serially and applied to cells in multi-well plates 48 h after seeding. Incubation was continued in 5% CO2 at 37 degrees C. for 24 h. Aliquots were removed and assayed for Aβ40 content using a sandwich ELISA (BioSource International). Amount of Aβ40 over the range of concentration of compounds, relative to control incubations, were fit to a 4-parameter IC50 model.

The target of another assay is memapsin 2 (Homo sapiens, UniProt P56817). Nature of the assay: Inhibition of memapsin 2 beta-secretase activity toward fluorogenic substrate FS-2. It is filed as biochemical. The conditions noted are these: pH 4, 37° C., 20 minutes pre-incubation, substrate FS-2, tight-binding model; read-out: M2 Ki. A digest of the protocol: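 Enzyme pre-incubated with compound 20 min at pH 4, 37 °C, then fluorogenic substrate FS-2 added. Inhibition derived from rate of fluorescence increase from peptide hydrolysis.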

The next assay deals with T1, memapsin 1 (Homo sapiens, UniProt Q9Y5Z0).
T1 sequence (Q9Y5Z0 63-518): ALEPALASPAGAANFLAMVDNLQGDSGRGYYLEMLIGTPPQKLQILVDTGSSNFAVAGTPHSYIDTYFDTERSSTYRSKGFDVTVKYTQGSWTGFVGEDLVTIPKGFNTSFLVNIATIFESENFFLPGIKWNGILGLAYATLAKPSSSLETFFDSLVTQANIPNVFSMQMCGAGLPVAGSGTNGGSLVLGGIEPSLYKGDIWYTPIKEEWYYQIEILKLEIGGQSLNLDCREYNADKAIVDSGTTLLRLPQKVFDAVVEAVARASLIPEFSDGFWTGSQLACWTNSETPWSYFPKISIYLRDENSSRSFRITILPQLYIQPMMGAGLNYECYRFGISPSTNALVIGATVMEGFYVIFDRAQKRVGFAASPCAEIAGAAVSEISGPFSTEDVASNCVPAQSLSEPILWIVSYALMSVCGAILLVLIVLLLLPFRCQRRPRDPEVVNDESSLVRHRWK
Nature of the assay: Inhibition of memapsin 1 beta-secretase activity (substrate peptide […], MALDI-TOF). The class given is biochemical. To be noted: pH 4.1, 37 degrees C., substrate NH3-ELDLAVEFWHDR-CO2, MALDI-TOF; read-out: M1 Ki.

In a further assay the target is Cathepsin D (Homo sapiens, UniProt P07339). Nature of the assay: Inhibition of cathepsin D activity (substrate peptide […], MALDI-TOF). The class given is biochemical. The conditions noted are these: pH 4.1, 37 degrees C., substrate NH3-[…]-CO2, MALDI-TOF; read-out: Cath D Ki.
Sequence of Cathepsin D (P07339 65-412, species assumed): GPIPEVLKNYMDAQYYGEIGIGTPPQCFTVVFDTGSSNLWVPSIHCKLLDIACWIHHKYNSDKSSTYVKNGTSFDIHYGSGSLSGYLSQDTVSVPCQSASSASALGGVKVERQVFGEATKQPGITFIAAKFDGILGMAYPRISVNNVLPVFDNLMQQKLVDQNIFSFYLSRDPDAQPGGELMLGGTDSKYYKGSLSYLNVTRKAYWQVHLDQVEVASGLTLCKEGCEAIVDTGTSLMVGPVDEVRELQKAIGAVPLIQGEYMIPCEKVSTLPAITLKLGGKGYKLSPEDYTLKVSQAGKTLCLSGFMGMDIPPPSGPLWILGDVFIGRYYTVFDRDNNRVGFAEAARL

Sequence of memapsin 2 (P56817 46-501): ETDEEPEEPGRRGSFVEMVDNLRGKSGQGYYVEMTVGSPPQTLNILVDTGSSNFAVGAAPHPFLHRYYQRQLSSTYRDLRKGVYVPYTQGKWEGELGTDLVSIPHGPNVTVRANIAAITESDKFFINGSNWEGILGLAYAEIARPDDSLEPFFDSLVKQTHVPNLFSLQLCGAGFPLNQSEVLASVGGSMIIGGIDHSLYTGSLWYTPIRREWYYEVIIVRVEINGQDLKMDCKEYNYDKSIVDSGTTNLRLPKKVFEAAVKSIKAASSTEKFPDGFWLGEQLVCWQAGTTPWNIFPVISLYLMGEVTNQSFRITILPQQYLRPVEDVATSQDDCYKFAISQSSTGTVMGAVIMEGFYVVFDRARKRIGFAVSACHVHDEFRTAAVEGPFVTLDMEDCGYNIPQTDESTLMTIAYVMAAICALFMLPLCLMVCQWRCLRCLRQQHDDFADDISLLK

In the assay with Aβ production, `CSC[C@H](NC(=O)OCc1ccn(C)n1)C(=O)N[C@H](CC(C)C)[C@@H](O)C[C@@H](C)C(=O)N[C@@H](C(=O)NCC(C)C)C(C)C` [Structure 93] returned an IC50 of 6 to 100 µM. Also, the Ki on memapsin 2 was 0.1 to 1 µM; at memapsin 1 it was 0.1 to 1 µM; on Cathepsin D it was less than 0.1 µM.

As to `COCS(=O)(=O)C[C@H](NC(=O)OCc1nc(C)cs1)C(=O)N[C@H](CC(C)C)[C@@H](O)C[C@@H](C)C(=O)N[C@@H](C(=O)NCC(C)C)C1CCCCC1` [Structure 35], the IC50 in the assay on Aβ production is greater than 100 µM. In addition, the Ki on memapsin 2 was less than 0.1 µM; at memapsin 1, 0.1 to 1 µM; at Cathepsin D, 0.1 to 1 µM.

In the assay with Aβ production, `Cc1nc(COC(=O)N[C@@H](CSC(C)C)C(=O)N[C@H](CC(C)C)[C@@H](O)C[C@@H](C)C(=O)N[C@@H](C(=O)NCC(C)C)C(C)C)c(C)o1` [Structure 60] yielded a half-inhibitory concentration (IC50) of less than 6 µM. Moreover, the inhibitory constant (Ki) is less than 0.1 µM at memapsin 2, 0.1 to 1 µM at memapsin 1 and less than 0.1 µM at Cathepsin D.

The molecule `Cc1csc(CCC(=O)N[C@@H](CS(C)(=O)=O)C(=O)N[C@H](CC(C)C)[C@@H](O)C[C@@H](C)C(=O)N[C@@H](C(=O)NCC(C)C)C(C)C)n1` [Structure 40] registered an IC50 in the assay on Aβ production greater than 100 µM. Also, the inhibition constant Ki on memapsin 2 is less than 0.1 µM; at memapsin 1 it was 0.1 to 1 µM; on Cathepsin D, 0.1 to 1 µM.

`Cc1cc(C)n(CCC(=O)N[C@@H](CS(C)(=O)=O)C(=O)N[C@@H](CC(C)C)[C@@H](O)C[C@@H](C)C(=O)N[C@@H](C(=O)NCC(C)C)C(C)C)n1` [Structure 5] gave an IC50 in the assay with Aβ production greater than 100 µM. The inhibition constant Ki is less than 0.1 µM at memapsin 2, 0.1 to 1 µM at memapsin 1 and 0.1 to 1 µM on Cathepsin D.

For the molecule `Cc1nc(COC(=O)N[C@@H](CS(C)(=O)=O)C(=O)N[C@H](CC(C)C)[C@@H](O)C[C@@H](C)C(=O)N[C@@H](C(=O)NCc2ccncc2)C(C)C)c(C)o1` [Structure 48], the IC50 with Aβ production was less than 6 µM. For the same molecule, the inhibition constant Ki is less than 0.1 µM at memapsin 2, 0.1 to 1 µM on memapsin 1 and 0.1 to 1 µM at Cathepsin D.

Turning to `Cc1csc(CC(C)C(=O)N[C@@H](CS(C)(=O)=O)C(=O)N[C@H](CC(C)C)[C@@H](O)C[C@@H](C)C(=O)N[C@@H](C(=O)NCC(C)C)C(C)C)n1` (some centres unmarked) [Structure 37], the IC50 in the assay on Aβ production was greater than 100 µM. The inhibitory constant (Ki) on memapsin 2 was less than 0.1 µM; on memapsin 1, 0.1 to 1 µM; on Cathepsin D it was 0.1 to 1 µM.

In turn, `CC[C@@H](Cc1nc(C)cs1)C(=O)N[C@@H](CSC)C(=O)N[C@H](CC(C)C)[C@@H](O)C[C@@H](C)C(=O)N[C@@H](C(=O)NCC(C)C)C(C)C` [Structure 75] displayed an IC50 in the assay on Aβ production of less than 6 µM. Moreover, the Ki on memapsin 2 was less than 0.1 µM; at memapsin 1 it was 0.1 to 1 µM; at Cathepsin D, less than 0.1 µM.

With `Cc1nc(COC(=O)N[C@@H](CS(C)(=O)=O)C(=O)N[C@H](CC(C)C)[C@@H](O)C[C@@H](C)C(=O)N[C@@H](C(=O)O)C(C)C)c(C)o1` [Structure 86], the IC50 in the assay on Aβ production was greater than 100 µM. Also, the Ki on memapsin 2 is 0.1 to 1 µM; at memapsin 1, 0.1 to 1 µM; at Cathepsin D, greater than 1 µM.

`CC[C@@H](Cn1nc(C)cc1C)C(=O)N[C@@H](CS(C)(=O)=O)C(=O)N[C@@H](CC(C)C)[C@@H](O)C[C@@H](C)C(=O)N[C@@H](C(=O)NCC(C)C)C(C)C` [Structure 7] displayed an IC50 in the assay on Aβ production greater than 100 µM. Also, the Ki at memapsin 2, on memapsin 1 and on Cathepsin D was less than 0.1 µM each time.

The molecule `CCC(C)S(=O)(=O)C[C@H](NC(=O)OCc1nc(C)cs1)C(=O)N[C@H](CC(C)C)[C@@H](O)C[C@@H](C)C(=O)N[C@@H](C(=O)NCC(C)C)C(C)C` (some centres unmarked) [Structure 67] displayed an IC50 in the assay on Aβ production greater than 100 µM. The inhibition constant Ki on memapsin 2 was less than 0.1 µM; on memapsin 1, 0.1 to 1 µM; on Cathepsin D it was 0.1 to 1 µM.

Regarding `COCCOCS(=O)(=O)C[C@H](NC(=O)OCc1nc(C)cs1)C(=O)N[C@H](CC(C)C)[C@@H](O)C[C@@H](C)C(=O)N[C@@H](C(=O)NCC(C)C)C(C)C` [Structure 30], the half-inhibitory concentration (IC50) in the assay with Aβ production was less than 6 µM. For the same molecule, the Ki on memapsin 2 was less than 0.1 µM; at memapsin 1, 0.1 to 1 µM; on Cathepsin D, 0.1 to 1 µM.

In the assay with Aβ production, `CC[C@@H](Cn1nc(C)cc1C)C(=O)N[C@@H](CSC)C(=O)N[C@H](CC(C)C)[C@@H](O)C[C@@H](C)C(=O)N[C@@H](C(=O)NCC(C)C)C(C)C` [Structure 3] had an IC50 of less than 6 µM. Moreover, the Ki on memapsin 2 was less than 0.1 µM; at memapsin 1, 0.1 to 1 µM; on Cathepsin D, less than 0.1 µM.

Turning to `Cc1nc(COC(=O)N[C@@H](CS(C)(=O)=O)C(=O)N[C@H](Cc2cc(F)cc(F)c2)[C@@H](O)C[C@@H](C)C(=O)N[C@@H](C(=O)NCC(C)C)C(C)C)c(C)o1` [Structure 78], the IC50 in the assay with Aβ production fell in the range of 6 to 100 µM. Also, the Ki on memapsin 2 was 0.1 to 1 µM; at memapsin 1, less than 0.1 µM; at Cathepsin D it was less than 0.1 µM.

In turn, `CC[C@@H](Cc1nc(C)cs1)C(=O)N[C@@H](CS(C)(=O)=O)C(=O)N[C@H](CC(C)C)[C@@H](O)C[C@@H](C)C(=O)N[C@@H](C(=O)NCC(C)C)C(C)C` [Structure 77] displayed an IC50 in the assay on Aβ production of less than 6 µM. Moreover, the inhibitory constant (Ki) at memapsin 2 is less than 0.1 µM; at memapsin 1, 0.1 to 1 µM; at Cathepsin D, less than 0.1 µM.

For the molecule `CSC[C@H](NC(=O)CCc1nc(C)cs1)C(=O)N[C@H](CC(C)C)[C@@H](O)C[C@@H](C)C(=O)N[C@@H](C(=O)NCC(C)C)C(C)C` [Structure 39], in the assay with Aβ production, the 50% inhibitory concentration (IC50) is greater than 100 µM. The Ki is less than 0.1 µM on memapsin 2, 0.1 to 1 µM at memapsin 1 and less than 0.1 µM on Cathepsin D.

`Cc1nc(COC(=O)N[C@@H](CS(C)(=O)=O)C(=O)N[C@H](CC(C)C)[C@@H](O)C[C@@H](C)C(=O)N[C@@H](C(=O)NCC(C)C)C(C)C)c(C)s1` [Structure 54] displayed an IC50 with Aβ production of less than 6 µM. The inhibition constant Ki at memapsin 2 was less than 0.1 µM; on memapsin 1, less than 0.1 µM; on Cathepsin D, 0.1 to 1 µM.

Regarding `C=CCS(=O)(=O)C[C@H](NC(=O)CCn1nc(C)cc1C)C(=O)N[C@H](CC(C)C)[C@@H](O)C[C@@H](C)C(=O)N[C@@H](C(=O)NCC(C)C)C(C)C` [Structure 18], the concentration for half-maximal inhibition (IC50) with Aβ production was greater than 100 µM. Moreover, the Ki on memapsin 2, on memapsin 1 and on Cathepsin D was less than 0.1 µM throughout.

The molecule `CSC[C@H](NC(=O)OCc1nc(C)oc1C)C(=O)N[C@H](CC(C)C)[C@@H](O)C[C@@H](C)C(=O)N[C@@H](C(=O)NCC(C)C)C(C)C` [Structure 29] showed a 50% inhibitory concentration (IC50) with Aβ production of less than 6 µM. In addition, the inhibitory constant (Ki) on memapsin 2 is less than 0.1 µM; on memapsin 1, 0.1 to 1 µM; at Cathepsin D, less than 0.1 µM.

Regarding `Cc1csc(COC(=O)N[C@@H](CSCC(C)C)C(=O)N[C@H](CC(C)C)[C@@H](O)C[C@@H](C)C(=O)N[C@@H](C(=O)NCC(C)C)C(C)C)n1` [Structure 47], the IC50 in the assay with Aβ production was less than 6 µM. Also, the values for the Ki at memapsin 2, on memapsin 1 and on Cathepsin D were less than 0.1 µM, 0.1 to 1 µM and less than 0.1 µM, respectively.

On to `Cc1nc(COC(=O)N[C@@H](CS(C)(=O)=O)C(=O)N[C@H](CC(C)C)[C@@H](O)C[C@@H](C)C(=O)N[C@@H](C(=O)NCC(C)C)C(C)C)c(C)o1` [Structure 94], for which, in the assay with Aβ production, the IC50 was less than 6 µM. The Ki at memapsin 2 is less than 0.1 µM; on memapsin 1 it was 0.1 to 1 µM; on Cathepsin D, 0.1 to 1 µM.

Take `CSC[C@H](NC(=O)[C@@H](C)Cc1nc(C)cs1)C(=O)N[C@H](CC(C)C)[C@@H](O)C[C@@H](C)C(=O)N[C@@H](C(=O)NCC(C)C)C(C)C` [Structure 64]: the half-inhibitory concentration (IC50) with Aβ production is less than 6 µM. Moreover, the values for the inhibitory constant (Ki) on memapsin 2, at memapsin 1 and on Cathepsin D were 0.1 to 1 µM, 0.1 to 1 µM and less than 0.1 µM, respectively.

`CCS(=O)(=O)C[C@H](NC(=O)OCc1nc(C)cs1)C(=O)N[C@H](CC(C)C)[C@@H](O)C[C@@H](C)C(=O)N[C@@H](C(=O)NCC(C)C)C(C)C` [Structure 22] came in with an IC50 in the assay with Aβ production of less than 6 µM. In addition, the Ki at memapsin 2 is less than 0.1 µM; on memapsin 1, 0.1 to 1 µM; on Cathepsin D, 0.1 to 1 µM.
